One may read the IC50 as the concentration that gives 50% inhibition. Read a low IC50 as greater potency in that assay.

The test system of one assay is P. falciparum strain Dd2. Description: Growth inhibition assay, asexual blood stages. In kind it is cell-based, Plasmodium falciparum. The conditions noted are these: Plasmodium falciparum, DD2, Dd2, Supplementary Table 11.
The subject of assay [1] is Dd2 P. falciparum parasites. Nature of the assay: In vitro parasite reduction ratio assay (Sanz protocol). In kind it is cell-based, Plasmodium falciparum.
The test system of a further assay is Dd2 SC81458 resistant. Description: Growth inhibition assay. The class given is cell-based. The conditions noted are these: Plasmodium falciparum. On the procedure: (§1) To identify the mode of action/mechanism of resistance of SC81458 and […], a chemogenomic approach was used, whereby resistant parasites were obtained by in vitro drug pressure selection and subjected to whole-genome sequencing to identify the genetic basis of resistance. Three independent selections of Dd2 parasites at an initial population of 10^10 infected red blood cells (performed in 150 ml flasks, 2% haematocrit) were subjected to SC81458 or SC83288 at a starting concentration of 50 nM. […] Drug resistance was confirmed by measuring the IC50s, after two consecutive cycles in absence of the drug, using a SYBRGreen growth inhibition assay as previously described. After up to 200 days of drug pressure, the drug-resistant lines were clones by limiting dilution for single-cell isolation and genomic DNA was extracted using the DNeasy Blood&Tissue kit (Qiagen, USA) and subjected to ultra-deep sequencing.

For a further assay, the system named is Dd2 SC83288 resistant. Description: Growth inhibition assay. The class given is cell-based. The conditions noted are these: Plasmodium falciparum. On the procedure:
as §1

As to `O=C1C(O)=C([C@H]2CC[C@H](c3ccc(Cl)cc3)CC2)C(=O)c2ccccc21` [atovaquone, reference compound], the IC50 in the assay on P. falciparum strain Dd2 turned out to be 0.6 ± 0.1 nM; in the assay with Dd2 SC81458 resistant it was 0.3 ± 0.1 nM; in the assay on Dd2 SC83288 resistant, 0.8 ± 0.1 nM. For the same compound, in assay [1] (10 times IC50, Dd2), the “In vitro PCT99.9%” value is 89 ± 7 h. Also, in assay [1] (10 times IC50, Dd2), the “In vitro lag phase” value is greater than 24 h. For the same compound, the “In vitro logPRR” value in assay [1] (10 times IC50, Dd2, over 48 h) is reported as 2.1±0.4.

The values are drawn from article PMC5290327, “SC83288 is a clinical development candidate for the treatment of severe malaria” (Nature Communications, 2017).
